The text below walks through data of patent publication US7572783B2 (Amgen Inc., priority 2004, dated 2009).

pIC50: −log10 of the molar value.

By pIC50 is commonly meant the negative decadic logarithm of the IC50, by convention in mol/L.

T1 sequence (Q92847 whole entry): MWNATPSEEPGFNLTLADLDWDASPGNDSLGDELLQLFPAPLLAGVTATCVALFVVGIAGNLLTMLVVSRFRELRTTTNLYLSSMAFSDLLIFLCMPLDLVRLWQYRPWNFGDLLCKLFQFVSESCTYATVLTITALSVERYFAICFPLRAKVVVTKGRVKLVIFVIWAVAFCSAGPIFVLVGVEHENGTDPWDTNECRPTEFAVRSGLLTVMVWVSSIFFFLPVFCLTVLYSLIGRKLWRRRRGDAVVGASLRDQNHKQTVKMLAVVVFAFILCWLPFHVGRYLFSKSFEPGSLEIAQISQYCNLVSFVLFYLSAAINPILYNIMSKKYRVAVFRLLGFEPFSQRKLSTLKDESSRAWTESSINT

This experiment has as its target T1, human GHSR1a (Homo sapiens, UniProt Q92847).
T1 construct: expressed in transfected cells
The experiment in a line: Aequorin luminescent functional assay (intracellular Ca2+, ghrelin-stimulated). Conditions: stable cell line expressing human GHSR1a and apoaequorin; final ghrelin 3x EC50 (20 nM); read-out: Class (based on IC50 values). The method, then:
IC50 values of inventive compounds may be assessed as follows. An aequorin (Euroscreen) luminescent assay (Stabels et al., 1997) measuring the intracellular Ca^2+ concentration was used as the functional assay to evaluate the potency of the compounds. A stable cell line, expressing human GHSR1a and apoaequorin in mitochondria was used in the aequorin assay. 5×10^6 cells per mL were incubated at room temperature in HyClone Media (Perbio) supplemented with 2 μM coelenterazine (Molecular Probes). After 2 hrs cells were diluted to 1×10^6 cells per ml in HyClone Medium.
50 μL of the cell suspension was added to each well of a 96-well plate containing 50 μL of compound, diluted in HyClone Medium. The cell suspension/compound mixture was incubated for 30 seconds before 50 μL of a 9× EC50 concentrations of a human ghrelin solution, in HyClone Medium, was injected. The final Ghrelin concentration was 3× EC50 (20 nM). Aequorin luminescence elicited by intracellular Ca^2+ in the cells was recorded for a total of 60 seconds with a microplate luminometer (Microlumate, Berthold). IC50 of the compounds in this assay was calculated with Prism 4.
In the case of `CC(C)C(C(=O)N1CCC(NC2CC2)CC1)N1CCc2ccc(Oc3ccc(F)cc3F)cc2C1=O` (centres unmarked) [2-{1-[4-(cyclopropyl-amino)-piperidine-1-carbonyl]-2-methyl-propyl}-7-(2,4-difluoro-phenoxy)-3,4-dihydro-2H-isoquinolin-1-one], the pIC50 is at least 8.00.

As for `O=C1c2cc(Oc3ccc(F)cc3F)ccc2CCN1C(c1cccc(CCNCC2CC2)c1)C1CC1` (centres unmarked) [2-(cyclopropyl-{3-[2-(cyclopropylmethyl-amino)-ethyl]-phenyl}-methyl)-7-(2,4-difluoro-phenoxy)-3,4-dihydro-2H-isoquinolin-1-one], the pIC50 was at least 8.00.

With `CC(C)[C@H](C(=O)NC1CCN(Cc2ccccc2)CC1)N1CC(=O)Nc2ccc(Oc3ccc(F)cc3)cc2C1=O`, the pIC50 was 7.30 to 8.00.

For `CC(C)C(COC(=O)NC1CCN(Cc2ccccc2)CC1)N1CC(=O)Nc2ccc(Oc3ccc(F)cc3)cc2C1=O` (centres unmarked) [(1-benzyl-piperidin-4-yl)-carbamic acid 2-[7-(4-fluoro-phenoxy)-2,5-dioxo-1,2,3,5-tetrahydro-benzo[e][1,4]diazepin-4-yl]-3-methyl-butyl ester], the pIC50 is 6.30 to 7.30.

Consider `Cc1ccccc1Oc1ccc2ncn(C(C(=O)NC3CCN(Cc4ccccc4)CC3)C(C)C)c(=O)c2c1` (centres unmarked) [N-(1-benzyl-piperidin-4-yl)-3-methyl-2-(4-oxo-6-o-tolyloxy-4H-quinazolin-3-yl)-butyramide], for which the pIC50 is 7.30 to 8.00.

On to `CC(C)C(CC1CCC(NC2CC2)CC1)N1CCCc2ccc(Oc3ccc(F)cc3F)cc2C1=O` (centres unmarked) [2-[1-(4-Cyclopropylamino-cyclohexylmethyl)-2-methyl-propyl]-8-(2,4-difluoro-phenoxy)-2,3,4,5-tetrahydro-benzo[c]azepin-1-one], for which the pIC50 was at least 8.00.

Consider `CCc1ccccc1Oc1ccc2c(c1)C(=O)N(C(C(=O)N1CCC(NCc3ccc(F)cc3)CC1)C(C)C)CC(=O)N2` (centres unmarked) [7-(2-ethyl-phenoxy)-4-{1-[4-(4-fluoro-benzylamino)-piperidine-1-carbonyl]-2-methyl-propyl}-3,4-dihydro-1H-benzo[e][1,4]diazepine-2,5-dione], for which the pIC50 was 7.30 to 8.00.

Consider `CC(C)C(COC1CCN(CC2CC2)CC1)N1CCc2ccc(Oc3ccc(F)cc3F)cc2C1=O` (centres unmarked) [2-[1-(1-cyclopropylmethyl-piperidin-4-yloxymethyl)-2-methyl-propyl]-7-(2,4-difluoro-phenoxy)-3,4-dihydro-2H-isoquinolin-1-one], for which the pIC50 is at least 8.00.

Consider `CC(C)C(C(=O)N1CCC(NCc2ccc(F)cc2)CC1)N1CC=Cc2ccc(Oc3ccc(F)cc3F)cc2C1=O` (centres unmarked) [8-(2,4-difluoro-phenoxy)-2-{1-[4-(4-fluoro-benzylamino)-piperidine-1-carbonyl]-2-methyl-propyl}-2,3-dihydro-benzo[c]azepin-1-one], for which the negative-log IC50 (pIC50) is at least 8.00.

As to `Cc1ccccc1Oc1ccc2c(c1)C(=O)N([C@@H](C(=O)N1CCC(N[C@@H]3CCc4ccccc43)CC1)C(C)C)CCN2`, the pIC50 was at least 8.00.

Take `CC(C)NCc1cccc(C(C(C)C)N2CC(=O)Nc3ccc(Oc4ccc(F)cc4F)cc3C2=O)c1` (centres unmarked) [7-(2,4-difluoro-phenoxy)-4-{1-[3-(isopropylamino-methyl)-phenyl]-2-methyl-propyl}-3,4-dihydro-1H-benzo[e][1,4]diazepine-2,5-dione]: the negative logarithm of the IC50 (pIC50) is at least 8.00.

For the compound `CC(C)C(C(=O)N1CCC(NCC2CC2)CC1)N1CCc2ccc(Oc3ccc(F)cc3F)cc2C1=O` (centres unmarked) [2-{1-[4-(cyclopropylmethyl-amino)-piperidine-1-carbonyl]-2-methyl-propyl}-7-(2,4-difluoro-phenoxy)-3,4-dihydro-2H-isoquinolin-1-one], the pIC50 was at least 8.00.

Turning to `O=C1c2cc(Oc3ccc(F)cc3F)ccc2CCN1[C@@H](c1cccc(CNCC2CC2)n1)C1CC1` [(R)-2-(cyclopropyl(6-((cyclopropylmethylamino)methyl)pyridin-2-yl)methyl)-7-(2,4-difluorophenoxy)-3,4-dihydroisoquinolin-1(2H)-one], the pIC50 was at least 8.00.

As for `Cc1ccccc1Oc1ccc2c(c1)C(=O)N(C(C(=O)N1CCC(NCCc3ccc(F)cc3)CC1)C(C)C)CCN2C` (centres unmarked) [4-(1-{4-[2-(4-fluoro-phenyl)-ethylamino]-piperidine-1-carbonyl}-2-methyl-propyl)-1-methyl-7-o-tolyloxy-1,2,3,4-tetrahydrobenzo[e][1,4]diazepin-5-one], the pIC50 was 7.30 to 8.00.

`O=C1c2cc(Oc3ccc(F)cc3F)ccc2CCN1[C@@H](c1cccc(CNC2CC2)n1)C1CC1` [(R)-2-(cyclopropyl(6-((cyclopropylamino)methyl)pyridin-2-yl)methyl)-7-(2,4-difluorophenoxy)-3,4-dihydroisoquinolin-1(2H)-one]: the pIC50 was at least 8.00.

On to `O=C1c2cc(Oc3ccc(F)cc3F)ccc2CCN1[C@@H](c1cccc(CNCC(F)F)n1)C1CC1` [(R)-2-(cyclopropyl(6-((2,2-difluoroethylamino)methyl)pyridin-2-yl)methyl)-7-(2,4-difluorophenoxy)-3,4-dihydroisoquinolin-1(2H)-one], for which the pIC50 is at least 8.00.

Take `CC(C)C(CCC1CCN(CC2CC2)CC1)N1CCc2ccc(Oc3ccc(F)cc3F)cc2C1=O` (centres unmarked) [2-{1-[2-(1-Cyclopropylmethyl-piperidin-4-yl)-ethyl]-2-methyl-propyl}-7-(2,4-difluoro-phenoxy)-3,4-dihydro-2H-isoquinolin-1-one]: the pIC50 is at least 8.00.

In the case of `Cc1cccc(C)c1Oc1ccc2c(c1)C(=O)N(C(C(=O)N1CCC(NCc3ccc(F)cc3)CC1)C(C)C)CC(=O)N2` (centres unmarked) [7-(2,6-dimethyl-phenoxy)-4-{1-[4-(4-fluoro-benzylamino)-piperidine-1-carbonyl]-2-methyl-propyl}-3,4-dihydro-1H-benzo[e][1,4]diazepine-2,5-dione], the pIC50 was at least 8.00.

In the case of `Cc1cccc(C)c1Oc1ccc2c(c1)C(=O)N(C(C(=O)N1CCC(NCCc3ccc(F)cc3)CC1)C(C)C)CC(=O)N2` (centres unmarked) [7-(2,6-dimethyl-phenoxy)-4-(1-{4-[2-(4-fluoro-phenyl)-ethylamino]-piperidine-1-carbonyl}-2-methyl-propyl)-3,4-dihydro-1H-benzo[e][1,4]diazepine-2,5-dione], the pIC50 was at least 8.00.

Take `CC(C)C(COC(=O)C1CCN(Cc2ccccc2)CC1)N1CC(=O)Nc2ccc(Oc3ccc(F)cc3)cc2C1=O` (centres unmarked) [1-benzyl-piperidine-4-carboxylic acid 2-[7-(4-fluoro-phenoxy)-2,5-dioxo-1,2,3,5-tetrahydro-benzo[e][1,4]diazepin-4-yl]-3-methyl-butyl ester]: the pIC50 is 7.30 to 8.00.

For the compound `CC(C)C(C(=O)OC1CCN(Cc2ccccc2)CC1)N1CC(=O)Nc2ccc(Oc3ccccc3)cc2C1=O` (centres unmarked) [2-(2,5-dioxo-7-phenoxy-1,2,3,5-tetrahydrobenzo[e][1,4]diazepin-4-yl)-3-methyl-butyric acid 1-benzyl-piperidin-4-yl ester], the pIC50 was 7.30 to 8.00.

For the compound `C[C@H](CO)NCc1cccc([C@@H](C2CC2)N2CCc3ccc(Oc4ccc(F)cc4F)cc3C2=O)n1` [2-((R)-cyclopropyl(6-(((R)-1-hydroxypropan-2-ylamino)methyl)pyridin-2-yl)methyl)-7-(2,4-difluorophenoxy)-3,4-dihydroisoquinolin-1(2H)-one], the pIC50 was at least 8.00.

With `CC(C)C(c1cccc(CN(C)C)c1)N1CC(=O)Nc2ccc(Oc3ccc(F)cc3F)cc2C1=O` (centres unmarked) [7-(2,4-difluoro-phenoxy)-4-[1-(3-dimethylaminomethyl-phenyl)-2-methyl-propyl]-3,4-dihydro-1H-benzo[e][1,4]diazepine-2,5-dione], the pIC50 was at least 8.00.

In the case of `Cc1cccc(C)c1Oc1ccc2c(c1)C(=O)N([C@@H](C(=O)N1CCC(NC(C)c3ccccc3)CC1)C(C)C)CC(=O)N2` (some centres unmarked), the negative-log IC50 (pIC50) was at least 8.00.

As to `Cc1cccc(C)c1Oc1ccc2c(c1)C(=O)N(C(C(=O)NC1CCN(C3CCc4ccccc43)CC1)C(C)C)CC(=O)N2` (centres unmarked) [2-[7-(2,6-dimethyl-phenoxy)-2,5-dioxo-1,2,3,5-tetrahydro-benzo[e][1,4]diazepin-4-yl]-N-(1-indan-1-yl-piperidin-4-yl)-3-methyl-butyramide], the pIC50 is at least 8.00.

As to `Cc1cc(F)ccc1Oc1ccc2c(c1)C(=O)N(C(C(=O)NC1CCN(Cc3ccccc3)CC1)C(C)C)Cc1ncc(C)n1-2` (centres unmarked) [N-(1-benzyl-piperidin-4-yl)-2-[8-(4-fluoro-2-methyl-phenoxy)-1-methyl-6-oxo-4H,6H-3,5,10b-triaza-benzo[e]azulen-5-yl]-3-methyl-butyramide], the pIC50 is at least 8.00.

Turning to `O=C1c2cc(Oc3ccc(F)cc3F)ccc2CCN1[C@@H](c1cccc(CNCCF)n1)C1CC1` [(R)-2-(cyclopropyl(6-((2-fluoroethylamino)methyl)pyridin-2-yl)methyl)-7-(2,4-difluorophenoxy)-3,4-dihydroisoquinolin-1(2H)-one], the pIC50 was at least 8.00.

As to `CC(C)C(COC(=O)NC1CCN(Cc2ccc(F)cc2)CC1)N1CC(=O)Nc2ccc(Oc3ccc(F)cc3)cc2C1=O` (centres unmarked) [[1-(4-Fluoro-benzyl)-piperidin-4-yl]-carbamic acid 2-[7-(4-fluoro-phenoxy)-2,5-dioxo-1,2,3,5-tetrahydro-benzo[e][1,4]diazepin-4-yl]-3-methyl-butyl ester], the pIC50 is 6.30 to 7.30.

In the case of `CC(C)(CO)NCc1cccc([C@@H](C2CC2)N2CCc3ccc(Oc4ccc(F)cc4F)cc3C2=O)n1` [(R)-2-(cyclopropyl(6-((1-hydroxy-2-methylpropan-2-ylamino)methyl)pyridin-2-yl)methyl)-7-(2,4-difluorophenoxy)-3,4-dihydroisoquinolin-1(2H)-one], the negative logarithm of the IC50 (pIC50) is at least 8.00.
